From publication PMC5681660, “Reduced hepatitis B and D viral entry using clinically applied drugs as novel inhibitors of the bile acid transporter NTCP” (Scientific Reports, 2017) come the findings set out here.

Test [1] addresses T1, human NTCP (Homo sapiens, UniProt Q14973).
T1 sequence (Q14973 1-349): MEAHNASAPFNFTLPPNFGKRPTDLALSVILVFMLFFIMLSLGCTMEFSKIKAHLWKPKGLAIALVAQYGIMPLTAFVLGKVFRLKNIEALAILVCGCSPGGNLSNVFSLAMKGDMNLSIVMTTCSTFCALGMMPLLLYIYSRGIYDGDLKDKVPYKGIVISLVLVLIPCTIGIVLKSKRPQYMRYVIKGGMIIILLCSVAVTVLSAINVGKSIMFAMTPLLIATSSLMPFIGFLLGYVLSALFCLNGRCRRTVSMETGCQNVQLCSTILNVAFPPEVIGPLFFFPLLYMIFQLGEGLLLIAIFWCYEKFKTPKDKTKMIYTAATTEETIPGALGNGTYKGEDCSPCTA
The test is described as follows: Screening taurocholate uptake assay (96-well, [14C]taurocholate, 10 µM drug).

For test [2], the target named is T1, human NTCP. The test is described as follows: Screening fluorescent competitive Myrcludex B-FITC binding assay (96-well, 10 µM drug).
[3] abbreviates: Prestwick library screen, taurocholate uptake, 10 µM drug.
The mark [4] stands for this setting: ranking score beside the functional and binding assay B-scores of the screen.
Setting [5] is: Prestwick library screen, Myrcludex B-FITC binding, 10 µM drug.
[6] abbreviates: combined ranking from functional and binding screening assays.
Setting [7] is: screen, 10 µM drug, taurocholate uptake.
Where [8] appears, read: screen, 10 µM drug, Myrcludex B-FITC binding.
[9] abbreviates: Prestwick library screen, 10 µM drug, B-score of taurocholate uptake.
Setting [10] is: combined ranking from functional and binding assay B-scores.
Setting [11] is: Prestwick library screen, 10 µM drug, B-score of Myrcludex B-FITC binding.

Structures can show the parent of a compound that is named as a salt. Where two headings read alike, the source gives them in different places.

`CC(C)NCC(O)COc1cccc2[nH]ccc12` (stereo not drawn) [Pindolol]: the B-score functional assay in test [1] (setting [3]) was -0.046. In test [1] (setting [4]), this compound yielded a Ranking score of 777.082. Moreover, in test [2] (setting [5]), the B-score binding assay was 0.992.
Take `COc1cc(NS(=O)(=O)c2ccc(N)cc2)nc(OC)n1` [Sulfadimethoxine]: the B-score functional assay in test [1] (setting [3]) is given as 0.762. The compound further came in with a Ranking score in test [1] (setting [4]) of 733.169. This compound also returned a B-score binding assay in test [2] (setting [5]) of -0.117.
In the same order, the values of `CCCN1C[C@H](CSC)C[C@@H]2c3cccc4[nH]cc(c34)C[C@H]21` [Pergolide mesylate] are -0.089, 708.625 and 0.514.
Consider `O=C(Oc1cccc2cccnc12)c1ccccc1` [Benzoxiquine], for which the Ranking score in test [1] (setting [6]) is recorded as 381.13. This compound also showed a B-score functional assay in test [1] (setting [7]) of -0.093. The compound further returned a B-score binding assay in test [2] (setting [8]) of -0.876.
The matching figures for `Cl.O=c1[nH]oc2c1CCNC2` [THIP Hydrochloride]: 426.394, 0.28 and -1.136.
In the same order, the values of `C=C1C[C@H]2[C@@H]3C=C(C)C4=CC(=O)CC[C@]4(C)[C@H]3CC[C@]2(C)[C@@]1(OC(C)=O)C(C)=O` [Melengestrol acetate] are 323.966, -2.447 and 1.224.
On to `CN(C)CC/C=C1/c2ccccc2COc2ccc(CC(=O)O)cc21` [Olopatadine hydrochloride], for which, in test [1] (setting [9]), the B-score functional assay is given as 1.227. The Ranking score in test [1] (setting [10]) came to 1048.28. In addition, in test [2] (setting [11]), the B-score binding assay came to 0.808.
For the compound `COc1cc(C(=O)N2CCOCC2)cc(OC)c1OC` [Trimetozine], the B-score functional assay in test [1] (setting [9]) came out at 0.651. For the same compound, in test [1] (setting [10]), the Ranking score came to 925.93. In test [2] (setting [11]), the B-score binding assay is recorded as 0.441.
In the same order, the values of `CN1CCOC(c2ccccc2)c2ccccc2C1` (stereo not drawn) [Nefopam hydrochloride] are 0.705, 906.685 and 0.293.
`OC(c1cc(C(F)(F)F)nc2c(C(F)(F)F)cccc12)C1CCCCN1` (stereo not drawn) [Mefloquine hydrochloride] yielded a B-score functional assay in test [1] (setting [3]) of 1.734. In test [1] (setting [4]), this compound had a Ranking score of 704.329. The compound further showed a B-score binding assay in test [2] (setting [5]) of -0.336.
As to `c1ccc(CNc2ncnc3[nH]cnc23)cc1` [Aminopurine, 6-benzyl], the Ranking score in test [1] (setting [6]) worked out at 337.92. In addition, in test [1] (setting [7]), the B-score functional assay is given as -0.027. This compound also displayed a B-score binding assay in test [2] (setting [8]) of -1.308.
`COc1ccc(C2CNC(=O)C2)cc1OC1CCCC1` (stereo not drawn) [Rolipram]: the B-score functional assay in test [1] (setting [9]) is 0.524. The Ranking score in test [1] (setting [10]) was 872.569. For the same compound, the B-score binding assay in test [2] (setting [11]) is given as 0.265.
As for `Oc1c(Cl)cc(Cl)c(Cl)c1Cc1c(O)c(Cl)cc(Cl)c1Cl` [Hexachlorophene], in test [1], the B-score functional assay is on record as -8.47 and the Ranking score turned out to be 82.4136. Also, the B-score binding assay in test [2] is reported as 1.48.
Regarding `C[N+](C)(CCOc1ccccc1)Cc1ccccc1.O=C([O-])c1cc2ccccc2cc1O` [Bephenium hydroxynaphthoate], the Ranking score in test [1] (setting [6]) was determined as 452.073. For the same compound, the B-score functional assay in test [1] (setting [7]) was -0.101. The compound further had a B-score binding assay in test [2] (setting [8]) of -0.482.
In the case of `O=C(NCC1CCCCN1)c1cc(OCC(F)(F)F)ccc1OCC(F)(F)F` (stereo not drawn) [Flecainide acetate], the Ranking score in test [1] (setting [6]) stood at 448.174. For the same compound, the B-score functional assay in test [1] (setting [7]) is reported as -1.076. In test [2] (setting [8]), the B-score binding assay was 0.272.
`Cc1cc2c(s1)Nc1ccccc1N=C2N1CCN(C)CC1` [Olanzapine] registered a B-score functional assay in test [1] (setting [9]) of 0.458. Besides, in test [1] (setting [10]), the Ranking score is given as 1041.63. For the same compound, the B-score binding assay in test [2] (setting [11]) is recorded as 2.253.
`CCC1NC(=O)c2cc(S(N)(=O)=O)c(Cl)cc2N1` (stereo not drawn) [Quinethazone] came in with a B-score functional assay in test [1] (setting [3]) of 1.708. In addition, the Ranking score in test [1] (setting [4]) is recorded as 787.128. Moreover, the B-score binding assay in test [2] (setting [5]) is -0.124.
As to `CCc1c(C)[nH]c2c1C(=O)C(CN1CCOCC1)CC2` (stereo not drawn) [Molindone hydrochloride], the Ranking score in test [1] (setting [6]) came to 412.337. Besides, in test [1] (setting [7]), the B-score functional assay was -0.958. Also, the B-score binding assay in test [2] (setting [8]) is listed as 0.009.
The matching figures for `C[C@H]1c2cccc(O)c2C(=O)C2=C(O)[C@]3(O)C(=O)C(C(N)=O)=C(O)[C@@H](N(C)C)[C@@H]3[C@@H](O)[C@@H]21` [Doxycycline hydrochloride]: 380.385, -0.015 and -1.041.
In turn, `Cn1c(=O)c2c(ncn2CC(O)CO)n(C)c1=O` (stereo not drawn) [Diprophylline] had a B-score functional assay in test [1] (setting [3]) of -0.019. In test [1] (setting [4]), this compound displayed a Ranking score of 816.025. Further, in test [2] (setting [5]), the B-score binding assay amounted to 1.219.
The matching figures for `CC1(C)O[C@@H]2C[C@H]3[C@@H]4CCC5=CC(=O)C=C[C@]5(C)[C@H]4[C@@H](O)C[C@]3(C)[C@]2(C(=O)CO)O1` [Desonide]: -0.358, 665.567 and 0.993.
In the case of `O=C1CCC(N2C(=O)c3ccccc3C2=O)C(=O)N1` (stereo not drawn) [Thalidomide], the B-score functional assay in test [1] (setting [9]) is given as 0.111. In addition, the Ranking score in test [1] (setting [10]) worked out at 964.883. This compound also displayed a B-score binding assay in test [2] (setting [11]) of 2.398.
As to `C[C@H]1NC(=O)NC1=O` [Methylhydantoin-5-(D)], the Ranking score in test [1] (setting [6]) is 290.241. Besides, the B-score functional assay in test [1] (setting [7]) was 0.047. The B-score binding assay in test [2] (setting [8]) is -1.862.
On to `Cc1ccccc1N1C(=O)c2cc(S(N)(=O)=O)c(Cl)cc2NC1C` (stereo not drawn) [Metolazone], for which the B-score functional assay in test [1] (setting [9]) amounted to 0.67. The Ranking score in test [1] (setting [10]) was found to be 1031.7. This compound came in with a B-score binding assay in test [2] (setting [11]) of 1.32.
Consider `CC(C)C[C@H](CN)CC(=O)O` [Pregabalin], for which, in test [1] (setting [9]), the B-score functional assay turned out to be 1.204. Besides, in test [1] (setting [10]), the Ranking score stood at 863.391. In test [2] (setting [11]), this compound showed a B-score binding assay of 0.027.
On to `O=C(CCCN1CC=C(n2c(=O)[nH]c3ccccc32)CC1)c1ccc(F)cc1` [Droperidol], for which the B-score functional assay in test [1] (setting [3]) is 0.035. Moreover, the Ranking score in test [1] (setting [4]) came out at 713.526. The compound also showed a B-score binding assay in test [2] (setting [5]) of 0.092.
Turning to `CC(C)(C)NCC(O)COc1cccc2c1CC(O)C(O)C2` (stereo not drawn) [Nadolol], the B-score functional assay in test [1] (setting [9]) was determined as 0.292. Besides, the Ranking score in test [1] (setting [10]) was found to be 986.853. The compound further yielded a B-score binding assay in test [2] (setting [11]) of 1.627.
In test [1], `C[C@]12CC[C@@H](O)C[C@H]1CC[C@@H]1[C@@H]2CC[C@]2(C)C(=O)CC[C@@H]12` [3-alpha-Hydroxy-5-beta-androstan-17-one] came in with a B-score functional assay of -2.764 and a Ranking score of 235.83. The compound further yielded a B-score binding assay in test [2] of 0.051.
As for `NS(=O)(=O)c1cc2c(cc1C(F)(F)F)NCNS2(=O)=O` [Hydroflumethiazide], the B-score functional assay in test [1] (setting [9]) turned out to be 0.664. In test [1] (setting [10]), the Ranking score was 856.507. This compound came in with a B-score binding assay in test [2] (setting [11]) of 0.137.
In the case of `Cl.Cl.Fc1ccc(C(OCCN2CCN(CCCc3ccccc3)CC2)c2ccc(F)cc2)cc1` [GBR 12909 dihydrochloride], in test [1] (setting [6]), the Ranking score is listed as 416.575. In test [1] (setting [7]), this compound showed a B-score functional assay of -0.602. The compound also yielded a B-score binding assay in test [2] (setting [8]) of -0.172.
On to `CO[C@@]1(NC(=O)Cc2cccs2)C(=O)N2C(C(=O)O)=C(COC(N)=O)CS[C@@H]21` [Cefoxitin sodium salt], for which the B-score functional assay in test [1] (setting [9]) is listed as 1.114. Further, the Ranking score in test [1] (setting [10]) worked out at 868.493. Further, the B-score binding assay in test [2] (setting [11]) amounted to 0.041.
The matching figures for `O=C([O-])[C@H]1/C(=C/CO)O[C@@H]2CC(=O)N21.[K+]` [Clavulanate potassium salt]: 0.008, 886.007 and 2.079.
`OC(CCCN1CCCCC1)(c1ccccc1)c1ccccc1` [Diphenidol hydrochloride]: the Ranking score in test [1] (setting [6]) is on record as 367.214. This compound registered a B-score functional assay in test [1] (setting [7]) of -1.4. This compound also came in with a B-score binding assay in test [2] (setting [8]) of 0.054.
`COc1cc(OC)c(C(=O)CCCN2CCCC2)c(OC)c1.Cl` [Buflomedil hydrochloride] registered a B-score functional assay in test [1] (setting [3]) of 2.687. The compound also had a Ranking score in test [1] (setting [4]) of 823.499. The compound also returned a B-score binding assay in test [2] (setting [5]) of -0.086.
As for `CN[C@@H]1[C@@H](O[C@H]2O[C@H](CO)[C@@H](N)[C@H](O)[C@H]2O)OC2C[C@@H](N)[C@@H](O[C@H]3[C@H](O)[C@@H](O)[C@H](N)C[C@@H]3N)OC2[C@@H]1O` (stereo partly drawn) [Apramycin], the Ranking score in test [1] (setting [6]) is recorded as 397.98. In addition, the B-score functional assay in test [1] (setting [7]) is on record as -0.431. Also, the B-score binding assay in test [2] (setting [8]) is given as -0.447.
Turning to `C/C=C(/C(=C/C)c1ccc(O)cc1)c1ccc(O)cc1` [Dienestrol], in test [1] (setting [6]), the Ranking score stood at 419.874. Moreover, the B-score functional assay in test [1] (setting [7]) was -0.196. Further, the B-score binding assay in test [2] (setting [8]) was -0.567.
With `Cc1nc2ccc(CN(C)c3ccc(C(=O)N[C@@H](CCC(=O)O)C(=O)O)s3)cc2c(=O)[nH]1` [Raltitrexed], in test [1] (setting [6]), the Ranking score turned out to be 413.367. This compound registered a B-score functional assay in test [1] (setting [7]) of -1.033. This compound also returned a B-score binding assay in test [2] (setting [8]) of 0.04.
